Assay results as given in publication PMC8119482, “A novel dual HDAC and HSP90 inhibitor, MPT0G449, downregulates oncogenic pathways in human acute leukemia in vitro and in vivo” (Oncogenesis, 2021).

Biological target: T1, HDAC6 (Homo sapiens, UniProt Q9UBN7)
T1 sequence (Q9UBN7 1-1215): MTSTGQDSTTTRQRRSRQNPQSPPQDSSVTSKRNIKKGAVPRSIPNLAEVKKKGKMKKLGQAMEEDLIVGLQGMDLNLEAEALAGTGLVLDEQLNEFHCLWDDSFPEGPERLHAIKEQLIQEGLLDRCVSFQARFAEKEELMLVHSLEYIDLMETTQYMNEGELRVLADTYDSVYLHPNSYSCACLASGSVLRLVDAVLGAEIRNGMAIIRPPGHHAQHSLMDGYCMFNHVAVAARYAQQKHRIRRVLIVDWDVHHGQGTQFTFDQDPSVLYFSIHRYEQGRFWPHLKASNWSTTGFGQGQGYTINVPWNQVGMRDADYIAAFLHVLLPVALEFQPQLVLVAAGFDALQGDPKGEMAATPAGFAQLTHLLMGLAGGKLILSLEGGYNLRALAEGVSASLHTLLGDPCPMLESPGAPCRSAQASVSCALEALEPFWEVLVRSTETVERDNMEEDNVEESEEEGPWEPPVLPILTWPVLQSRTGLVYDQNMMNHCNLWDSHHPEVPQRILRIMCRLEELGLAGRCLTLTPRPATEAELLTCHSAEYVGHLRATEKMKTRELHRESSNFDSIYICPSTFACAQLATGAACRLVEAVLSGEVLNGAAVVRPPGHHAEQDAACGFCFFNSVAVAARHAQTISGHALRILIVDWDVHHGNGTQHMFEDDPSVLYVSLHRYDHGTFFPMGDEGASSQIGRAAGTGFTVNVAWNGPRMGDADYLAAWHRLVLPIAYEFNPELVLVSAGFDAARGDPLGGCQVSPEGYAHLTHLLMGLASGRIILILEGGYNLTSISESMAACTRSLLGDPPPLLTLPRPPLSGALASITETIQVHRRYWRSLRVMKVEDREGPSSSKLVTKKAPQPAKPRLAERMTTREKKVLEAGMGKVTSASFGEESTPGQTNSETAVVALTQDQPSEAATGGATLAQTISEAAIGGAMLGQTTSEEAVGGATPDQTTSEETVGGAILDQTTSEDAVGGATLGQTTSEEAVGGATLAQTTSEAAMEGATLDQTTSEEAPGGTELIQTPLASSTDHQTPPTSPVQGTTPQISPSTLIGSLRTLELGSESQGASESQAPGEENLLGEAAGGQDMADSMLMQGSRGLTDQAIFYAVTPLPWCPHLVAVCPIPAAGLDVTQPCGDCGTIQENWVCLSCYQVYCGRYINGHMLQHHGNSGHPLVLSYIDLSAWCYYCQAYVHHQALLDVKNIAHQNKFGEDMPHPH
Test: HDAC isoform activity assay (Reaction Biology Corp.); values not shown in main text
Type: biochemical

Compound: CC(C)c1cc(C(=O)N(C)c2ccc(NC(=O)CCCCCCCC(=O)NO)cc2)c(O)cc1O [compound 26, MPT0G449]
- HDAC isoform activity assay (Reaction Biology Corp.); values not shown in main t: HDAC6 was selected because MPT0G499 exhibited the most potent inhibition.
